Laboratory results as given in ChEMBL document CHEMBL3885861, “Open TG-GATES”.

Organism: Rattus norvegicus
Experiment: Open TG-GATES - Regimen: Single
Format: toxicity, organism-based, Sprague-Dawley
Parameters: regimen Single, gender Male, age 6 weeks
Conditions: in vivo, po, 500 mg/kg, route gavage, dose level High; for APTT / Bas / Eos / Fbg / Hb / Ht / Lym / MCH / MCHC / MCV / Mono / Neu / PT / Plat / RBC / Ret / WBC: tissue Blood; for KIDNEY_L / KIDNEY_R / KIDNEY_TOTAL: tissue Kidney; for LIVER: tissue Liver; for A/G / ALP / ALT / AST / BUN / CRE / Ca / Cl / DBIL / GLC / IP / K / LDH / Na / PL / RALB / TBIL / TC / TG / TP / gamma-GTP: tissue Plasma

`CN1C(=O)OC(C)(C)C1=O` [TRIMETHADIONE] gave a TERMINAL_BW (3 h) of 212 g, an APTT (3 h) of 16.8 s and a Bas (3 h) of 0%. For the same compound, the Eos (3 h) was 0.8%, the Fbg (3 h) was 267.8 mg/dL and the Hb (3 h) was 12.7 g/dL. It also gave a Ht (3 h) of 38.3%, a Lym (3 h) of 79.2% and an MCH (3 h) of 21.5 pg. It also gave an MCHC (3 h) of 33.2%, an MCV (3 h) of 64.8 fL and a Mono (3 h) of 2.4%. For the same compound, the Neu (3 h) was 17%, the PT (3 h) was 14 s and the Plat (3 h) was 113.4 x10_4/uL. It also gave an RBC (3 h) of 591.4 x10_4/ul, a Ret (3 h) of 8.8% and a WBC (3 h) of 80.3 x10_2/uL. For the same compound, the KIDNEY_L (3 h) was 1 g, the KIDNEY_R (3 h) was 0.9 g and the KIDNEY_TOTAL (3 h) was 1.9 g. It also gave an LIVER (3 h) of 9.1 g, an A/G (3 h) of 0.9 and an ALP (3 h) of 1375.2 IU/L. For the same compound, the ALT (3 h) was 39.6 IU/L, the AST (3 h) was 70.6 IU/L and the BUN (3 h) was 8.6 mg/dL. It also gave a CRE (3 h) of 0.2 mg/dL, a Ca (3 h) of 10.5 mg/dL and a Cl (3 h) of 107.2 meq/L. For the same compound, the DBIL (3 h) was 0.002 mg/dL, the GLC (3 h) was 174.2 mg/dL and the IP (3 h) was 8.8 mg/dL. The K (3 h) was 4.2 meq/L, the LDH (3 h) was 108 IU/L and the Na (3 h) was 139.4 meq/L. The PL (3 h) was 150.4 mg/dL, the RALB (3 h) was 2.4 g/dL and the TBIL (3 h) was 0.058 mg/dL. The TC (3 h) was 84.2 mg/dL, the TG (3 h) was 60.6 mg/dL and the TP (3 h) was 5.2 g/dL. For the same compound, the gamma-GTP (3 h) was 1 IU/L, the TERMINAL_BW (6 h) was 209.4 g and the APTT (6 h) was 16.1 s. For the same compound, the Bas (6 h) was 0.2%, the Eos (6 h) was 1.2% and the Fbg (6 h) was 280.2 mg/dL. The Hb (6 h) was 12.9 g/dL, the Ht (6 h) was 38.9% and the Lym (6 h) was 79.6%. It also gave an MCH (6 h) of 21.1 pg, an MCHC (6 h) of 33.1% and an MCV (6 h) of 63.7 fL. For the same compound, the Mono (6 h) was 1.6%, the Neu (6 h) was 17% and the PT (6 h) was 14.1 s. The Plat (6 h) was 121.7 x10_4/uL, the RBC (6 h) was 611.6 x10_4/ul and the Ret (6 h) was 8.2%. For the same compound, the WBC (6 h) was 94.3 x10_2/uL, the KIDNEY_L (6 h) was 1 g and the KIDNEY_R (6 h) was 0.9 g. It also gave a KIDNEY_TOTAL (6 h) of 1.9 g, an LIVER (6 h) of 8.5 g and an A/G (6 h) of 0.9. For the same compound, the ALP (6 h) was 1302 IU/L, the ALT (6 h) was 31 IU/L and the AST (6 h) was 66.8 IU/L. The BUN (6 h) was 8.2 mg/dL, the CRE (6 h) was 0.2 mg/dL and the Ca (6 h) was 10.6 mg/dL. It also gave a Cl (6 h) of 107.2 meq/L, a DBIL (6 h) of 0 mg/dL and a GLC (6 h) of 173.2 mg/dL. For the same compound, the IP (6 h) was 9.4 mg/dL, the K (6 h) was 4.1 meq/L and the LDH (6 h) was 72 IU/L. For the same compound, the Na (6 h) was 141 meq/L, the PL (6 h) was 139.2 mg/dL and the RALB (6 h) was 2.4 g/dL. For the same compound, the TBIL (6 h) was 0.058 mg/dL, the TC (6 h) was 80.2 mg/dL and the TG (6 h) was 35.8 mg/dL. For the same compound, the TP (6 h) was 5.2 g/dL, the gamma-GTP (6 h) was 1.4 IU/L and the TERMINAL_BW (9 h) was 209 g. For the same compound, the APTT (9 h) was 15.6 s, the Bas (9 h) was 0% and the Eos (9 h) was 0.8%. For the same compound, the Fbg (9 h) was 253.2 mg/dL, the Hb (9 h) was 12.6 g/dL and the Ht (9 h) was 37.9%. For the same compound, the Lym (9 h) was 75.2%, the MCH (9 h) was 21.4 pg and the MCHC (9 h) was 33.4%. The MCV (9 h) was 64.3 fL, the Mono (9 h) was 1.8% and the Neu (9 h) was 21.8%. For the same compound, the PT (9 h) was 14.5 s, the Plat (9 h) was 117.7 x10_4/uL and the RBC (9 h) was 589.4 x10_4/ul. The Ret (9 h) was 8%, the WBC (9 h) was 81.5 x10_2/uL and the KIDNEY_L (9 h) was 1 g. The KIDNEY_R (9 h) was 1 g, the KIDNEY_TOTAL (9 h) was 2 g and the LIVER (9 h) was 8.2 g. The A/G (9 h) was 0.9, the ALP (9 h) was 1539.2 IU/L and the ALT (9 h) was 29 IU/L. The AST (9 h) was 65.4 IU/L, the BUN (9 h) was 7.6 mg/dL and the CRE (9 h) was 0.2 mg/dL. For the same compound, the Ca (9 h) was 10.2 mg/dL, the Cl (9 h) was 105.8 meq/L and the DBIL (9 h) was 0 mg/dL. It also gave a GLC (9 h) of 158.4 mg/dL, an IP (9 h) of 10.3 mg/dL and a K (9 h) of 3.8 meq/L. The LDH (9 h) was 69.4 IU/L, the Na (9 h) was 140.6 meq/L and the PL (9 h) was 127.8 mg/dL. It also gave an RALB (9 h) of 2.4 g/dL, a TBIL (9 h) of 0.056 mg/dL and a TC (9 h) of 67.4 mg/dL. It also gave a TG (9 h) of 28.2 mg/dL, a TP (9 h) of 5.1 g/dL and a gamma-GTP (9 h) of 1.2 IU/L. The TERMINAL_BW (24 h) was 215.3 g, the APTT (24 h) was 17.7 s and the Bas (24 h) was 0%. It also gave an Eos (24 h) of 0.8%, a Fbg (24 h) of 286.8 mg/dL and a Hb (24 h) of 13.6 g/dL. The Ht (24 h) was 40.5%, the Lym (24 h) was 78% and the MCH (24 h) was 21.1 pg. For the same compound, the MCHC (24 h) was 33.6%, the MCV (24 h) was 62.7 fL and the Mono (24 h) was 2.6%. It also gave a Neu (24 h) of 18.4%, a PT (24 h) of 13.8 s and a Plat (24 h) of 129.1 x10_4/uL. The RBC (24 h) was 646.2 x10_4/ul, the Ret (24 h) was 6.9% and the WBC (24 h) was 101.5 x10_2/uL. The KIDNEY_L (24 h) was 0.9 g, the KIDNEY_R (24 h) was 1 g and the KIDNEY_TOTAL (24 h) was 1.9 g. For the same compound, the LIVER (24 h) was 9.7 g, the A/G (24 h) was 0.9 and the ALP (24 h) was 1799.8 IU/L. For the same compound, the ALT (24 h) was 49.4 IU/L, the AST (24 h) was 82.2 IU/L and the BUN (24 h) was 13 mg/dL. For the same compound, the CRE (24 h) was 0.2 mg/dL, the Ca (24 h) was 10.6 mg/dL and the Cl (24 h) was 101.6 meq/L. The DBIL (24 h) was 0.006 mg/dL, the GLC (24 h) was 165.2 mg/dL and the IP (24 h) was 7.4 mg/dL. The K (24 h) was 3.9 meq/L, the LDH (24 h) was 96.8 IU/L and the Na (24 h) was 144 meq/L. For the same compound, the PL (24 h) was 137.2 mg/dL, the RALB (24 h) was 2.6 g/dL and the TBIL (24 h) was 0.046 mg/dL. It also gave a TC (24 h) of 75.6 mg/dL, a TG (24 h) of 99.4 mg/dL and a TP (24 h) of 5.6 g/dL. The gamma-GTP (24 h) was 1 IU/L.
